Test results taken from paper PMC4775997, “Imidazopyridazine Inhibitors of Plasmodium falciparum Calcium-Dependent Protein Kinase 1 Also Target Cyclic GMP-Dependent Protein Kinase and Heat Shock Protein 90 To Kill the Parasite at Different Stages of Intracellular Development” (Antimicrobial Agents and Chemotherapy, 2016).
Like-named read-outs stand apart in the source and are kept apart here.

What was measured:
[1] = target: T1, PfPKG (Plasmodium falciparum, UniProt Q8I719); experiment: Microfluidic fluorescent shift assay of cGMP-dependent protein kinase activity; format: biochemical; conditions: read-out: Enzyme inhibition IC50, PKG
T1 construct: plasmids (pTrcHisC) encoding full-length PfPKG and PfPKG T618Q with N-terminal His tags; His tag (N); made in house; host or cells: E. coli Rosetta2(DE3)

[2] = target: T2, PfPKG T618Q (Plasmodium falciparum, UniProt Q8I719, T618Q); experiment: biochemical; format: biochemical; conditions: for IC50: read-out: Enzyme inhibition IC50, PKG T618Q
T2 construct: plasmids (pTrcHisC) encoding full-length PfPKG and PfPKG T618Q with N-terminal His tags; His tag (N); made in house; host or cells: E. coli Rosetta2(DE3)
T2 sequence (Q8I719 whole entry T618Q): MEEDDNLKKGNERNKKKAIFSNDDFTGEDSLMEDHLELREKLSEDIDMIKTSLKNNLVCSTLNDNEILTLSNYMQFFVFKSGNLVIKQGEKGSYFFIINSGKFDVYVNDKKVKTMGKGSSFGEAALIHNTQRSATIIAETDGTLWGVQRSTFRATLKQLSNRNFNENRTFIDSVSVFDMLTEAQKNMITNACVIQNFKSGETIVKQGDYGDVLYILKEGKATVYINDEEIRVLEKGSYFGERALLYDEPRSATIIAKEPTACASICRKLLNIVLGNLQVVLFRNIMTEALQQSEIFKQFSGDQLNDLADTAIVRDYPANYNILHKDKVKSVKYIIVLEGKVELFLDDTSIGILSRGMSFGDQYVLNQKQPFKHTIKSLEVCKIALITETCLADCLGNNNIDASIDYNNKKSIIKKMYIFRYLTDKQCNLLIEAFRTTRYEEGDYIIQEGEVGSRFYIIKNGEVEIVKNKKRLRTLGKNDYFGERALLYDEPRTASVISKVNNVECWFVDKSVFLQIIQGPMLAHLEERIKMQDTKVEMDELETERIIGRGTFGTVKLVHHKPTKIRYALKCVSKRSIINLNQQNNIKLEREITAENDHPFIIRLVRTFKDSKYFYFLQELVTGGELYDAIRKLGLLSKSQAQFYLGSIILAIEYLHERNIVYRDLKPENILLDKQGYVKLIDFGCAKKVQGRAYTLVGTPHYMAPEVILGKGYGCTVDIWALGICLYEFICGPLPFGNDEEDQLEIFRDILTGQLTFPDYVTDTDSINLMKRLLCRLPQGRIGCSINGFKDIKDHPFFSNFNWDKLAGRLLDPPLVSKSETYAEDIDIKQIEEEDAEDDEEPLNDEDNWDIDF

[3] = system: P. falciparum 3D7; experiment: SYBR green I growth assay, wild-type parasites; format: cell-based, Plasmodium falciparum
[4] = target: CDPK1 (Plasmodium falciparum, UniProt P62344); experiment: biochemical; format: biochemical; conditions: Table S2; read-out: Enzyme inhibition IC50, CDPK1
Chain of CDPK1 (P62344 whole entry): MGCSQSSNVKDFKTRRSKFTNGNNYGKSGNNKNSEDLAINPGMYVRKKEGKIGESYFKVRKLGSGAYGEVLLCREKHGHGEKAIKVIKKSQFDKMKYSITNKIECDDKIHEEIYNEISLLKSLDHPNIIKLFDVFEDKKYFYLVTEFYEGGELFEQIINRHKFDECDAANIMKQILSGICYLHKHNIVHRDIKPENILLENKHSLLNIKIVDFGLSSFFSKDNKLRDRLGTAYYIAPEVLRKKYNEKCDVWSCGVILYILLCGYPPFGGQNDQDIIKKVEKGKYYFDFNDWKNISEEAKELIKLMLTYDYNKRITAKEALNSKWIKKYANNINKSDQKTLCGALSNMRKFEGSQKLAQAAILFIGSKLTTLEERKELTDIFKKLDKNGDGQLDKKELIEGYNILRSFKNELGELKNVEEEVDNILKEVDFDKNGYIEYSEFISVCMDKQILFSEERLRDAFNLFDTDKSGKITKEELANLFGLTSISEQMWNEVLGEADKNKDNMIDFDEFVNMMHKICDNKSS

[5] = system: 3D7 PKG T618Q; experiment: microbe, parasite or virus in culture; format: cell-based, Plasmodium falciparum; conditions: for EC50: read-out: Parasite inhibition EC50, 3D7 PKG T618Q
[6] = system: P. falciparum 3D7; experiment: Microscopic examination of Giemsa-stained smears (stage of action); conditions: for Stage of action (before or after DNA synthesis): Table S1, ring-stage parasites, 10x EC50 for 48 h; for Stage of action: ring stage parasites treated with 10 times the 96-h EC50 for 48 h
[7] = Table S1, single experiment with duplicate samples, or mean of triplicate experiments (SD), read-out: EC50 48 hours
[8] = Table S1, single experiment with duplicate samples, or mean of triplicate experiments (SD), read-out: EC50 96 hours
[9] = Table 2, SYBR green I, 96 h, single experiment, or mean (SD) of duplicate assays
[10] = Plasmodium falciparum, 3D7, 96 h
[11] = Plasmodium falciparum, 3D7, 48 h, read-out: EC50 after treatment for 48 h
[12] = Plasmodium falciparum, 3D7, 96 h, read-out: EC50 96 hours
[13] = Plasmodium falciparum, 3D7, 96 h, read-out: EC50 after treatment for 96 h
[14] = Plasmodium falciparum, 3D7, 96 h, read-out: Parasite inhibition EC50, 3D7

| Compound | IC50 ([1]; Table S2) [µM] | IC50 ([2]; Table S2) [µM] | EC50 [3, 7] [µM] | EC50 [3, 8] [µM] | ratio EC5048:EC5096 ([3]; Table S1) | Selectivity PKG T618Q/PKG ([2]; Table S2) | IC50 [4] [µM] | also measured |
| --- | --- | --- | --- | --- | --- | --- | --- | --- |
| CN1CCC(Nc2ccc3ncc(-c4ccc(Nc5ncccc5F)cc4)n3n2)CC1 [Compound 18] | 0.404 | 15.7 | 1.22 | 0.6 | – | – | – | – |
| c1cnc(Nc2ncc(-c3cnc4ccc(NC5CCNCC5)nn34)cn2)cn1 [Compound 40] | – | – | – | 1.23 | – | – | – | – |
| CCCCNc1ccc(-c2cnc3ccc(N4CCN(C)CC4)nn23)cn1 [Compound 14] | – | – | 2.1 | 1.18 | 1.8 | – | – | – |
| c1ccc(-n2cc(-c3cnc4ccc(NC5CCNCC5)nn34)cn2)cc1 [Compound 10] | – | – | 0.72 | 0.46 | 1.6 | – | – | – |
| CN1CCC(Nc2ccc3ncc(-c4cc(F)c(Nc5ccccn5)c(F)c4)n3n2)CC1 [Compound 2] | 0.069 | 12.8 | 1.28 | 1.04 | – | – | – | – |
| CC(C)CCNc1ncc(-c2cnc3ccc(NC4CCNCC4)nn23)cn1 [Compound 29] | 0.093 | 0.88 | 3.46 | 0.64 | 5.4 | 10 | 0.018 | – |
| CC(C)CCNc1ccc(-c2cnc3ccc(NC4CCN(C)C4)nn23)cn1 (centres unmarked) [Compound 6] | – | – | 0.59 | 0.42 | 1.4 | – | – | – |
| CC(C)CCNc1ccc(-c2cnc3ccc(N4CCC(N(C)C)CC4)nn23)cn1 [Compound 5] | – | – | 0.54 | 0.39 | 1.4 | – | – | – |
| CC(C)CCNc1ccc(-c2cnc3ccc(N4CCC(N)CC4)nn23)cn1 [Compound 12] | – | – | 0.41 | 0.25 | 1.6 | – | – | – |
| CC(C)CCNc1ncc(-c2cnc3ccc(NC4CCC(N)CC4)nn23)cn1 (centres unmarked) [Compound 37] | – | – | – | 0.65 | – | – | – | – |
| CN1CCC(Nc2ccc3ncc(-c4cc(F)c(Nc5ncccc5F)c(F)c4)n3n2)CC1 [Compound 8] | 0.237 | 64.6 | 0.99 | 0.66 | 1.5 | 272 | 0.017 | – |
| c1ccc(Nc2ncc(-c3cnc4ccc(NC5CCNCC5)nn34)cn2)nc1 [Compound 26] | 0.02 | 3.28 | 0.83 | 0.2 | 4.2 | 161 | 0.009 | – |
| CC(C)CCNc1ccc(-c2cnc3ccc(NC4CCN(C)CC4)nn23)cn1 [Compound 43] | – | – | – | – | – | – | – | EC50 [5, 9]: 0.093 µM; EC50 ([3]; Table S2, 96 h, read-out: Parasite inhibition EC50, 3D7): 0.079 µM |
| CN1CCC(Nc2ccc3ncc(-c4cnc(Nc5cnccn5)c(F)c4)n3n2)CC1 [Compound 15] | 0.249 | 51.3 | 1.74 | 0.96 | 1.9 | 206 | 0.02 | – |
| CN1CCC(Nc2ccc3ncc(-c4cnc(Nc5ncccc5F)nc4)n3n2)CC1 [Compound 33] | 0.005 | 10 | – | 0.03 | – | – | – | – |
| Fc1cc(-c2cnc3ccc(NC4CCNCC4)nn23)cnc1Nc1ccccn1 [Compound 25] | 0.054 | 9.93 | 1.96 | 0.54 | 3.6 | 182 | 0.013 | – |

| Compound | IC50 ([1]; Table S2) [µM] | IC50 ([2]; Table S2) [µM] | EC50 [3, 7] [µM] | EC50 [3, 8] [µM] | ratio EC5048:EC5096 ([3]; Table S1) | Selectivity PKG T618Q/PKG ([2]; Table S2) | IC50 [4] [µM] | also measured |
| --- | --- | --- | --- | --- | --- | --- | --- | --- |
| CN1CCC(Nc2ccc3ncc(-c4ccc(Nc5ncccc5F)nc4)n3n2)CC1 [Compound 17] | 0.118 | 12.1 | 1.15 | 0.58 | – | – | – | – |
| CCCCNc1ccc(-c2cnc3ccc(N4CCC(N)CC4)nn23)cn1 [Compound 19] | – | – | 0.57 | 0.26 | 2.2 | – | – | – |
| CC(C)CCNc1ccc(-c2cnc3ccc(NC4CCNCC4)nn23)cn1 [Compound 11] | 0.256 | 256 | 0.96 | 0.6 | 1.6 | 1000 | 0.015 | – |
| CC(C)CCNc1ncc(-c2cnc3ccc(NC4CCN(C)CC4)nn23)cn1 [Compound 23] | 0.16 | 4.76 | 2.49 | 0.99 | 2.5 | 30 | 0.014 | – |
| Fc1cccnc1Nc1ncc(-c2cnc3ccc(NC4CCNCC4)nn23)cn1 [Compound 32] | 0.007 | 6.16 | 1.79 | 0.11 | 16.6 | 931 | 0.01 | – |
| Fc1cccnc1Nc1ccc(-c2cnc3ccc(NC4CCNCC4)nn23)cn1 [Compound 24] | 0.062 | 1.25 | 2.45 | 0.71 | 3.4 | 20 | 0.011 | – |
| Fc1cc(-c2cnc3ccc(NC4CCNCC4)nn23)ccc1Nc1ccccn1 [Compound 21] | 0.087 | 3.77 | 1.63 | 0.69 | 2.4 | 44 | 0.01 | – |
| Fc1cccnc1Nc1ncc(-c2cnc3ccc(NC4CCC(N5CCCC5)CC4)nn23)cn1 (centres unmarked) [Compound 39] | – | – | – | – | – | – | – | Stage of action (before or after DNA synthesis) [6]: late schizont; Stage of action [6]: Late schizont; IC50 ([1]; Table 2, ATP at Km 20 μM): 0.002 µM; EC50 [5, 9]: 0.982 µM; Decrease in potency against the PKG T618Q variant parasite ([5]; versus 3D7 WT, 96 h SYBR green I): 29 fold; IC50 ([2]; Table 2, ATP at Km 90 μM): 25.5 µM; EC50 ([3]; SYBR green I, 48 h incubation, mean of three independent experiments (SD), read-out: EC50 after treatment for 48 h): > 1000 µM; EC50 ([3]; SYBR green I, 96 h incubation, mean of three independent experiments (SD), read-out: EC50 after treatment for 96 h): 0.02 µM; EC50 ([3]; Table 2, SYBR green I, 96 h, single experiment, or mean (SD) of duplicate assays, read-out: Parasite inhibition EC50, 3D7): 0.034 µM |
| NC1CCC(Nc2ccc3ncc(-c4ccc(Nc5ncccc5F)cc4)n3n2)CC1 (centres unmarked) [Compound 9] | 0.048 | 16.8 | 0.62 | 0.4 | – | – | – | – |
| CN1CCC(Nc2ccc3ncc(-c4ccc(Nc5cnccn5)cc4)n3n2)CC1 [Compound 3] | – | – | 0.76 | 0.61 | 1.3 | – | – | – |
| CN1CCC(Nc2ccc3ncc(-c4ccc(Nc5ccccn5)c(F)c4)n3n2)CC1 [Compound 16] | 0.088 | 10.6 | – | – | – | – | – | – |
| c1nc(N2CCCCC2)ncc1-c1cnc2ccc(NC3CCNCC3)nn12 [Compound 34] | – | – | – | 1.18 | – | – | – | – |
| NC1CCC(Nc2ccc3ncc(-c4cnc(Nc5ncccc5F)nc4)n3n2)CC1 (centres unmarked) [Compound 36] | – | – | – | – | – | – | – | Stage of action (before or after DNA synthesis) [6]: late schizont; Stage of action [6]: Late schizont; EC50 [5, 10]: 0.901 µM; EC50 [3, 11]: > 1000 µM; EC50 [3, 12]: 0.02 µM; EC50 [3, 13]: 0.023 µM; EC50 [3, 14]: 0.034 µM; EC50 after treatment for 48 h ([3]; SYBR green I, 48 h incubation, mean of three independent experiments (SD)): not able to be determined with any accuracy |
| Fc1cccnc1Nc1ncc(-c2cnc3ccc(NC4CCC(N5CCOCC5)CC4)nn23)cn1 (centres unmarked) [Compound 41] | – | – | – | – | – | – | – | Stage of action (before or after DNA synthesis) [6]: late schizont; Developmental arrest seen in smears ([6]; parasites about 21 h after invasion, 48 h at 10 times the EC50 determined by FACS (compound C 0.3 μM, compound D 4 μM)): arrested prior to merozoite egress; Stage of action [6]: Late schizont; EC50 [5, 10]: 0.923 µM; EC50 [3, 11]: > 1000 µM; EC50 [3, 12]: 0.04 µM; EC50 [3, 13]: 0.037 µM; EC50 [3, 14]: 0.042 µM |
| Fc1cccnc1Nc1ncc(-c2cnc3ccc(NCCN4CCNCC4)nn23)cn1 [Compound 30] | – | – | 0.31 | 0.05 | 6.0 | – | – | – |
| Fc1cc(-c2cnc3ccc(NC4CCNCC4)nn23)cnc1Nc1cnccn1 [Compound 27] | 0.101 | 10 | 4.3 | 0.84 | 5.1 | 99 | 0.017 | – |
